For 27 compounds, IC50 results are on record in US9604961B2, “Histone demethylase inhibitors” (Celgene Quanticel Research, Inc., priority 2012, dated 2017).

As usually defined, the IC50 is the point on the concentration scale where inhibition reaches its midpoint.

For assay [1], the target named is JMJD2C (Homo sapiens (Human), UniProt Q9H3R0). The assay is described as follows: JMJD2C in vitro enzyme inhibition assay (TR-FRET). In kind it is biochemical.
Assay [2] has as its target FBXL10 (Homo sapiens (Human), UniProt Q8NHM5). Briefly: FBXL10 in vitro enzyme inhibition assay (AlphaScreen). It counts as biochemical. As to the method: Reaction product was determined quantitatively by AlphaScreen detection after the addition of detection reagents anti-H3K36me1 antibody, AlphaScreen® Streptavidin-coated Donor beads, and AlphaScreen® Protein A Acceptor beads in 50 mM HEPES, pH7.3, 10 mM NaCl, 0.005% Brij35, 5 mM EDTA, 2 mg/ml BSA to final 10 μg/ml beads.
Plates were incubated at room temperature for 40 minutes, followed by addition of 3 μl of 50 μg/ml AlphaScreen® Streptavidin-coated Donor beads and AlphaScreen® Protein A Acceptor beads in 50 mM HEPES, pH7.3, 10 mM NaCl, 0.005% Brij35, 5 mM EDTA, 2 mg/ml BSA. Plates were read by EnVisionMultilabel Reader in AlphaScreen mode after a minimum of 2 hour or up to overnight incubation at room temperature. The AlphaScreen signal for each well was used to determine inhibition constant (IC50).
A general note: Alpha assays give light when donor and acceptor beads are brought close together.

The target of assay [3] is Jarid1A (Homo sapiens (Human), UniProt P29375). The assay is described as follows: Jarid1A in vitro enzyme inhibition assay (TR-FRET). It counts as biochemical. The source says: The enzymatic assay of Jarid1A activity is based upon Time Resolved-Fluorescence Resonance Energy Transfer (TR-FRET) detection.
Jarid1A, sequence (P29375 1-1090): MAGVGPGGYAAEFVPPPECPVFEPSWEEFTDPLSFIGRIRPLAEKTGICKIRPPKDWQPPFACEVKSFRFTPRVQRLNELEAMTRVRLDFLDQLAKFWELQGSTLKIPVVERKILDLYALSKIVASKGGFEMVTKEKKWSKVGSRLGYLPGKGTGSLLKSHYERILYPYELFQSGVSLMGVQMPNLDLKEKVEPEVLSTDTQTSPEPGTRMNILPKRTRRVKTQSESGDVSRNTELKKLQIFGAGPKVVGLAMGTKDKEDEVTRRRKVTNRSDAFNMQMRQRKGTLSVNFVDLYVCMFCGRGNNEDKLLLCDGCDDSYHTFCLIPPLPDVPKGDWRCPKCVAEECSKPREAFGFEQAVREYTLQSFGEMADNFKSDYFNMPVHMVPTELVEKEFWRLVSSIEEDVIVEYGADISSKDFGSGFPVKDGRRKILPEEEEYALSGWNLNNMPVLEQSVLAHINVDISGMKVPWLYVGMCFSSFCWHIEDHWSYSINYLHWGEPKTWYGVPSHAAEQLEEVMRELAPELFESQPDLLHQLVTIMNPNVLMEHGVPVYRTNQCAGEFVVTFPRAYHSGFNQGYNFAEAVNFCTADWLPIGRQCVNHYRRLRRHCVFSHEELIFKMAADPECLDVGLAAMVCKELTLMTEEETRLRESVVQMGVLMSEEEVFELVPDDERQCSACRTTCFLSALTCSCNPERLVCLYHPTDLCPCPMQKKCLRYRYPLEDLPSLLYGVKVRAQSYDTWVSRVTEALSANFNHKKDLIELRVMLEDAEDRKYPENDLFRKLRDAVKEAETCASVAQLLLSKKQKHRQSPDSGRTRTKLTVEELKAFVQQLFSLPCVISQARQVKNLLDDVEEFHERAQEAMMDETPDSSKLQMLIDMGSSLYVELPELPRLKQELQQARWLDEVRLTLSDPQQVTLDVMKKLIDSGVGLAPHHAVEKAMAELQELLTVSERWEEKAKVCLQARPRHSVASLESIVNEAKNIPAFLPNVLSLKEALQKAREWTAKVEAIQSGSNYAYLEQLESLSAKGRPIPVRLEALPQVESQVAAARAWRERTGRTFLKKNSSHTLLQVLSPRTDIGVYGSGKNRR
On the technique in general: Time-resolved FRET reads energy transfer from a long-lived donor to a nearby acceptor.

In assay [4] the target is Jarid1B (Homo sapiens (Human), UniProt Q9UGL1). Briefly: Jarid1B in vitro enzyme inhibition assay (TR-FRET). It counts as biochemical.
Jarid1B, sequence (Q9UGL1 2-751): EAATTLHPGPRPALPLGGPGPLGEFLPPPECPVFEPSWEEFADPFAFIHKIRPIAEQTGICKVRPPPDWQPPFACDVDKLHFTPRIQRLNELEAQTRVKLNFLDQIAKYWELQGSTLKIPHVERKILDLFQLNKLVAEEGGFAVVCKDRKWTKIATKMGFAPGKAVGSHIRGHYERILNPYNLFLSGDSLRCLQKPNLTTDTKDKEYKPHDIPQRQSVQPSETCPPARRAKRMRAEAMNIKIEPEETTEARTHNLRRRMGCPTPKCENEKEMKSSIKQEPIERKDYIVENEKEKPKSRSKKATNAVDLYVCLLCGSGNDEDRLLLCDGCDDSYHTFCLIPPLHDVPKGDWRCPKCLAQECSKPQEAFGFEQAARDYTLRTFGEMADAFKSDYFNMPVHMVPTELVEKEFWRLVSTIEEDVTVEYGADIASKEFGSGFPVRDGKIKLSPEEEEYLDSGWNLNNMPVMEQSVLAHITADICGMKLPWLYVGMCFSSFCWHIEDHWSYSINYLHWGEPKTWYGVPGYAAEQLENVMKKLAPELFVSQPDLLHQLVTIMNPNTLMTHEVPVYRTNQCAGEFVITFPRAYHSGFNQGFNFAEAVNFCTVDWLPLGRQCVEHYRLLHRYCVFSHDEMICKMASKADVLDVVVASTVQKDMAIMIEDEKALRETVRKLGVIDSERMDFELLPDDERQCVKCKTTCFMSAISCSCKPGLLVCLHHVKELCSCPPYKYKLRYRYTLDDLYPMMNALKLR
Experimental: (§1) This assay determines the ability of a test compound to inhibit Jarid1A, Jarid1B, JMJD2C, and JMJD2A demethylase activity.
The ability of test compounds to inhibit the activity of Jarid1B was determined in 384-well plate format under the following reaction conditions: 0.8 nM Jarid1B, 300 nM H3K4me3-biotin labeled peptide (Anaspec cat #64357), 2 μM alpha-ketoglutaric acid in assay buffer of 50 mM HEPES, pH7.3, 0.005% Brij35, 0.5 mM TCEP, 0.2 mg/ml BSA, 50 μM sodium L-ascorbate, and 2 μM ammonium iron(II) sulfate. Reaction product was determined quantitatively by TR-FRET after the addition of detection reagent Phycolink Streptavidin-allophycocyanin (Prozyme) and Europium-anti-mono- or di-methylated histone H3 lysine 4 (H3K4me1-2) antibody (PerkinElmer) in the presence of 5 mM EDTA in LANCE detection buffer (PerkinElmer) at a final concentration of 25 nM and 1 nM, respectively.
The assay reaction was initiated by the following: 2 μl of the mixture of 900 nM H3K4me3-biotin labeled peptide and 6 μM alpha-ketoglutaric acid with 2 μl of 11-point serial diluted inhibitor in 3% DMSO was added to each well of the plate, followed by the addition of 2 μl of 2.4 nM Jarid1B to initiate the reaction. The reaction mixture was incubated at room temperature for 30 minutes, and terminated by the addition of 6 μl of 5 mM EDTA in LANCE detection buffer containing 50 nM Phycolink Streptavidin-allophycocyanin and 2 nM Europium-anti-H3K4me1-2 antibody. Plates were read by EnVisionMultilabel Reader in TR-FRET mode (excitation at 320 nm, emission at 615 nm and 665 nm) after 1 hour incubation at room temperature. A ratio was calculated (665/615) for each well and fitted to determine inhibition constant (IC50).
For assay [5], the target named is JMJD2A (Homo sapiens (Human), UniProt O75164). The assay is described as follows: JMJD2A in vitro enzyme inhibition assay (TR-FRET). Particulars: read-out: JMJD2A IC50.
JMJD2A, sequence (O75164 1-350): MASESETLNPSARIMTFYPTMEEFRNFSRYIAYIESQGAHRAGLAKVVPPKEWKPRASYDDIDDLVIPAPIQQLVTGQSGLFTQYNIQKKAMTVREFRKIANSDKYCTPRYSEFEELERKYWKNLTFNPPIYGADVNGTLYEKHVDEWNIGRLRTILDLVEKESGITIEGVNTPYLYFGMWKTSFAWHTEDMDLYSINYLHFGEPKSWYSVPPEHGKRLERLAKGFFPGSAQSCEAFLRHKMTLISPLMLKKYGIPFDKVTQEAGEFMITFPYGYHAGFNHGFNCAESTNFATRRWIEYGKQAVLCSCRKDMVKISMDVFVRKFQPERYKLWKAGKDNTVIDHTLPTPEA
Experimental: as §1
Reaction product was determined quantitatively by TR-FRET after the addition of detection reagent Phycolink Streptavidin-allophycocyanin (Prozyme) and Europium-anti-di-methylated histone H3 lysine 9 (H3K9me2) antibody (PerkinElmer) in the presence of 5 mM EDTA in LANCE detection buffer (PerkinElmer) at a final concentration of 50 nM and 1 nM, respectively.
The assay reaction was initiated by the following: 2 μl of the mixture of 900 nM H3K9me3-biotin labeled peptide and 6 μM alpha-ketoglutaric acid with 2 μl of 11-point serial diluted inhibitor in 3% DMSO were added to each well of plate, followed by the addition of 2 μl of 6 nM JMJD2A to initiate the reaction. The reaction mixture was incubated at room temperature for 30 minutes, and terminated by the addition of 6 μl of 5 mM EDTA in LANCE detection buffer containing 100 nM Phycolink Streptavidin-allophycocyanin and 2 nM Europium-anti-H3K9me2 antibody.

FBXL10, sequence (Q8NHM5 1-650): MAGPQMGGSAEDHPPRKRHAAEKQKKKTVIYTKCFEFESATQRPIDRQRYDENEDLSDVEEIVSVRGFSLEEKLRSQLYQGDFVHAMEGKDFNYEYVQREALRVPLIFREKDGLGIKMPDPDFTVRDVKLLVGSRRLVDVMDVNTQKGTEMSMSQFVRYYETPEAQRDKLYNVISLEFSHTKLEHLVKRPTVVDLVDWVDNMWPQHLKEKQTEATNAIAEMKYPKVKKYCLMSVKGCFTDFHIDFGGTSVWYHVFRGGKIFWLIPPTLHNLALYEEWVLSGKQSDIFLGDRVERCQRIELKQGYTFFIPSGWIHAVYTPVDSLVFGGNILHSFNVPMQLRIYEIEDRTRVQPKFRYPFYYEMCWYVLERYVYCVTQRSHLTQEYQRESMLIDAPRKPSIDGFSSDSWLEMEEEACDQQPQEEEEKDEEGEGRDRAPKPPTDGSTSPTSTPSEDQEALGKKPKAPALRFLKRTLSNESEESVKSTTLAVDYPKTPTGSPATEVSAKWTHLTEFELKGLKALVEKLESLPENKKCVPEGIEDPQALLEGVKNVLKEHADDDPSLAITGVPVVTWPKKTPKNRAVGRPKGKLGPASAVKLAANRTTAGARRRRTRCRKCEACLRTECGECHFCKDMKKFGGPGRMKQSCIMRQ
JMJD2C, sequence (Q9H3R0 2-372): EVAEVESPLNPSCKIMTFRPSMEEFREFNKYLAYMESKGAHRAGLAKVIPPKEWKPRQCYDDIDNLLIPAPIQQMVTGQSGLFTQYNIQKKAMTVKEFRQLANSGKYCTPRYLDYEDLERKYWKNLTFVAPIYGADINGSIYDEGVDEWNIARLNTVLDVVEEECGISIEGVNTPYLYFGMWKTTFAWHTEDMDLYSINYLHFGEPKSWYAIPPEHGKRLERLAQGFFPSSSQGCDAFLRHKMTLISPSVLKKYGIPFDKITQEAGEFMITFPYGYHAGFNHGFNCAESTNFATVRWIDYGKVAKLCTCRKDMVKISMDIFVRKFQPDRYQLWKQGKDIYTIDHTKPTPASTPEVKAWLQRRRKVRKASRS

For the compound `O=C(O)c1ccnc(-n2nc(-c3ccccc3F)cc2O)c1` [Example 5, 2-(3-(2-fluorophenyl)-5-hydroxy-1H-pyrazol-1-yl)isonicotinic acid], the IC50 in assay [1] was 1000 to 10000 nM; in assay [2] it was below 100 nM; in assay [3], 1000 to 10000 nM; in assay [4], 1000 to 10000 nM.
On to `CCCc1cc(O)n(-c2cc(C(=O)O)ccn2)n1` [Example 6, 2-(5-hydroxy-3-propyl-1H-pyrazol-1-yl)isonicotinic acid], for which the IC50 in assay [1], in assay [2], in assay [3] and in assay [4] was 100 to 1000 nM in each case.
Regarding `O=C(O)c1ccnc(-n2nc(-c3ccccc3Cl)cc2O)c1` [Example 7, 2-(3-(2-chlorophenyl)-5-hydroxy-1H-pyrazol-1-yl)isonicotinic acid], the IC50 in assay [1] was above 10000 nM; in assay [2], below 100 nM; in assay [3], 1000 to 10000 nM; in assay [4], 1000 to 10000 nM.
Turning to `O=C(O)c1ccnc(-n2nc(Cc3ccccc3)cc2O)c1` [Example 8, 2-(3-benzyl-5-hydroxy-1H-pyrazol-1-yl)isonicotinic acid], the IC50 in assay [1] is 1000 to 10000 nM; in assay [2], below 100 nM; in assay [3], 100 to 1000 nM; in assay [4], 100 to 1000 nM.
Take `COCc1cc(O)n(-c2cc(C(=O)O)ccn2)n1` [Example 9, 2-(5-hydroxy-3-(methoxymethyl)-1H-pyrazol-1-yl)isonicotinic acid]: the IC50 in assay [1] was 1000 to 10000 nM; in assay [2] it was below 100 nM; in assay [3] it was 100 to 1000 nM; in assay [4] it was 100 to 1000 nM.
`O=C(O)c1ccnc(-n2nc(COc3ccccc3)cc2O)c1` [Example 10, 2-(5-hydroxy-3-(phenoxymethyl)-1H-pyrazol-1-yl)isonicotinic acid]: the IC50 in assay [1] was above 10000 nM; in assay [2] it was below 100 nM; in assay [3], 1000 to 10000 nM; in assay [4] it was 100 to 1000 nM.
Turning to `O=C(O)c1ccnc(-n2nccc2O)c1` [Example 11, 2-(5-hydroxy-1H-pyrazol-1-yl)isonicotinic acid], the IC50 in assay [1] is 100 to 1000 nM; in assay [2], 100 to 1000 nM; in assay [3], below 100 nM; in assay [4], below 100 nM.
Regarding `Cc1ccc(-c2ccnn2-c2cc(C(=O)O)ccn2)cc1` [Example 12, 2-(5-p-tolyl-1H-pyrazol-1-yl)isonicotinic acid], the IC50 in assay [1], in assay [3], in assay [4] and in assay [5] was 100 to 1000 nM each time.
For `O=C(O)c1ccnc(-n2nccc2-c2ccc(F)cc2F)c1` [Example 14, 2-(5-(2,4-difluorophenyl)-1H-pyrazol-1-yl)isonicotinic acid], the IC50 in assay [1], in assay [3], in assay [4] and in assay [5] was 100 to 1000 nM each time.
`O=C(O)c1ccnc(-n2nccc2-c2cccc(O)c2)c1` [Example 17, 2-(5-(3-hydroxyphenyl)-1H-pyrazol-1-yl)isonicotinic acid]: the IC50 in assay [1], in assay [3], in assay [4] and in assay [5] was 100 to 1000 nM throughout.
Turning to `O=C(O)c1ccnc(-n2nccc2-c2ccc(F)cc2)c1` [Example 27, 2-(5-(4-fluorophenyl)-1H-pyrazol-1-yl)isonicotinic acid], the IC50 in assay [1] is 100 to 1000 nM; in assay [2], above 10000 nM; in assay [3], 100 to 1000 nM; in assay [4], 100 to 1000 nM.
Turning to `O=C(O)c1ccnc(-n2nccc2Cc2ccccc2)c1` [Example 32, 2-(5-benzyl-1H-pyrazol-1-yl)isonicotinic acid], the IC50 is above 10000 nM in assay [1], 1000 to 10000 nM in assay [2], above 10000 nM in assay [3] and above 10000 nM in assay [4].
For `O=C(O)c1ccnc(-n2ccc(Cc3ccccc3)n2)c1` [Example 33, 2-(3-benzyl-1H-pyrazol-1-yl)isonicotinic acid], the IC50 in assay [1], in assay [2], in assay [3] and in assay [4] was 1000 to 10000 nM each time.
On to `O=C(O)c1ccnc(-n2ccc(CCc3ccccc3)n2)c1` [Example 35, 2-(3-phenethyl-1H-pyrazol-1-yl)isonicotinic acid], for which the IC50 in assay [1], in assay [3], in assay [4] and in assay [5] was 100 to 1000 nM throughout.
Regarding `O=C(O)c1ccnc(-n2nccc2OCc2ccccc2)c1` [Example 39, 2-(5-(benzyloxy)-1H-pyrazol-1-yl)isonicotinic acid], the IC50 in assay [1], in assay [3], in assay [4] and in assay [5] was below 100 nM each time.
As for `O=C(O)c1ccnc(-n2nccc2OCc2ccc(F)cc2)c1` [Example 40, 2-{5-[(4-fluorobenzyl)oxy]-1H-pyrazol-1-yl}pyridine-4-carboxylic acid], the IC50 in assay [1] was below 100 nM; in assay [2] it was above 10000 nM; in assay [3], below 100 nM; in assay [4] it was below 100 nM.
`O=C(O)c1ccnc(-n2nccc2OCc2ccc3cn[nH]c3c2)c1` [Example 49, 2-[5-(1H-indazol-6-ylmethoxy)-1H-pyrazol-1-yl]pyridine-4-carboxylic acid]: the IC50 in assay [1] is 1000 to 10000 nM; in assay [2] it was 100 to 1000 nM; in assay [3], 100 to 1000 nM; in assay [4], 100 to 1000 nM.
Take `Cc1ccc(COc2ccnn2-c2cc(C(=O)O)ccn2)cc1` [Example 55, 2-{5-[(4-methylbenzyl)oxy]-1H-pyrazol-1-yl}pyridine-4-carboxylic acid]: the IC50 in assay [1] is below 100 nM; in assay [2], 1000 to 10000 nM; in assay [3] it was below 100 nM; in assay [4] it was below 100 nM.
Turning to `CCc1ccc(COc2ccnn2-c2cc(C(=O)O)ccn2)cc1` [Example 56, 2-{5-[(4-ethylbenzyl)oxy]-1H-pyrazol-1-yl}pyridine-4-carboxylic acid], the IC50 is 100 to 1000 nM in assay [1], 1000 to 10000 nM in assay [2], below 100 nM in assay [3] and below 100 nM in assay [4].
Turning to `Cc1ccc(COc2ccnn2-c2cc(C(=O)O)ccn2)cc1Cl` [Example 92, 2-[5-[(3-chloro-4-methylphenyl)methoxy]pyrazol-1-yl]pyridine-4-carboxylic acid], the IC50 in assay [1] was below 100 nM; in assay [2] it was 1000 to 10000 nM; in assay [3], below 100 nM; in assay [4] it was below 100 nM.
For the compound `N#Cc1ccc(COc2ccnn2-c2cc(C(=O)O)ccn2)cc1` [Example 99, 2-[5-[(4-cyanophenyl)methoxy]pyrazol-1-yl]pyridine-4-carboxylic acid], the IC50 is below 100 nM in assay [1], 1000 to 10000 nM in assay [2], below 100 nM in assay [3] and below 100 nM in assay [4].
Turning to `O=C(O)c1ccnc(-n2nccc2OCc2ccc(Cl)cc2OCc2ccccc2)c1` [Example 105, 2-[5-[(4-chloro-2-phenylmethoxyphenyl)methoxy]pyrazol-1-yl]pyridine-4-carboxylic acid], the IC50 was 100 to 1000 nM in assay [1], 100 to 1000 nM in assay [2], below 100 nM in assay [3] and below 100 nM in assay [4].
As to `O=C(O)c1ccnc(-n2nccc2OCc2ccc(Cl)cc2OCC2CC2)c1` [Example 106, 2-[5-[[4-chloro-2-(cyclopropylmethoxy)phenyl]methoxy]pyrazol-1-yl]pyridine-4-carboxylic acid], the IC50 is 100 to 1000 nM in assay [1], 1000 to 10000 nM in assay [2], below 100 nM in assay [3] and below 100 nM in assay [4].
In the case of `O=C(O)c1ccnc(-n2nccc2OCc2ccc(Cl)cc2OCC(F)(F)F)c1` [Example 108, 2-[5-[[4-chloro-2-(2,2,2-trifluoroethoxy)phenyl]methoxy]pyrazol-1-yl]pyridine-4-carboxylic acid], the IC50 in assay [1] was 100 to 1000 nM; in assay [2] it was 1000 to 10000 nM; in assay [3] it was below 100 nM; in assay [4], below 100 nM.
Consider `CN(CCc1cnn(-c2cc(C(=O)O)ccn2)c1)Cc1ccc(F)cc1` [Example 156, 2-[4-[2-[(4-fluorophenyl)methyl-methylamino]ethyl]pyrazol-1-yl]pyridine-4-carboxylic acid], for which the IC50 in assay [1] is below 100 nM; in assay [2], above 10000 nM; in assay [3], below 100 nM; in assay [4] it was below 100 nM.
For `CC(c1ccccc1)c1cc(O)n(-c2cc(C(=O)O)ccn2)n1` (stereo not drawn) [Example 162, 2-[5-hydroxy-3-(1-phenylethyl)pyrazol-1-yl]pyridine-4-carboxylic acid], the 50% inhibitory concentration (IC50) is 1000 to 10000 nM in assay [1], below 100 nM in assay [2], 1000 to 10000 nM in assay [4] and above 10000 nM in assay [5].
In the case of `O=C(O)c1ccnc(-n2nc(Cc3ccccc3Cl)cc2O)c1` [Example 163, 2-[3-[(2-chlorophenyl)methyl]-5-hydroxypyrazol-1-yl]pyridine-4-carboxylic acid], the IC50 in assay [1] is 1000 to 10000 nM; in assay [2], below 100 nM; in assay [4], 1000 to 10000 nM; in assay [5], above 10000 nM.
